Data on two compounds can be found in patent US20030060469A1, “Use of substances that act as cascade inhibitors of the raf/mek/erk signal cascade, for producing a medicament to treat dna and rna viruses” (priority 2000, published 2003).

Each structure is given as a SMILES string. Like-named read-outs stand apart in the source and are kept apart here.

The test system of data set [1] is Borna disease virus (BDV).
In data set [2] the test system is MDCK cells. As to conditions: concentrations corresponding to the infection test (up to 50 μM), macroscopic examination and propidium iodide staining.
The subject of data set [3] is influenza A virus stem WSN-HK.
For data set [4] the following is noted: mouse model; oral administration; up to a cumulating dose of 6 g/kg body weight; cited from earlier work.

For `N#CC(=C(N)Sc1ccccc1N)C(C#N)=C(N)Sc1ccccc1N` [U0126, 1,4-diamino-2,3-dicyano-1,4-bis[2-aminophenylthio]butadiene], the “virus foci (spreading of BDV infection)” value in data set [1] (administration of 6 μM, compared to untreated infectious reference cells) is given as “no difference of the virus foci”; in data set [1] (administration of 12.5 μM), “the effect is not clear anymore”; in data set [1] (one-time administration of 25 μM, cultivation time of 7 days), “no virus foci are visible”. In addition, in data set [2], the “cytotoxic effect on the cells” value is “neither solvent nor inhibitor have a significant cytotoxic effect on the cells”. In addition, the “reduction of the number of newly generated infectious virus particles in the cell culture medium” value in data set [3] is recorded as “approx. 80%”.

As for `O=C(NOCC1CC1)c1ccc(F)c(F)c1Nc1ccc(I)cc1Cl` [PD184352, 2-(2-chloro-4-iodo-phenylamino)-N-cyclopropyl-methoxy-3,4-difluoro-benzamide], the signs of toxicity result in data set [4] is recorded as “without showing any significant signs of toxicity”.
